Results from BindingDB's records for doi:10.1016/j.bmcl.2015.01.024 (Arena Pharmaceuticals, 2015).

Assay: Agonist activity at human IP receptor in human platelets assessed as inhibition of ADP-induced platelet aggregation

IC50 [µM] | Structure (SMILES)
0.22 | O=C(O)COc1cccc2c1CCC(Cn1ncc(-c3ccccc3F)c(-c3ccccc3)c1=O)C2 (centres undefined)
0.062 | O=C(O)COc1cccc2c1CC[C@@H](Cn1ncc(-c3cccc(F)c3F)c(-c3ccc(F)cc3)c1=O)C2
0.064 | COc1cccc(-c2cnn(CC3CCc4c(cccc4OCC(=O)O)C3)c(=O)c2-c2ccccc2)c1F (centres undefined)
0.325 | O=C(O)COc1cccc2c1CCC(Cn1ncc(-c3ccccc3)c(-c3ccccc3)c1=O)C2 (centres undefined)
0.062 | O=C(O)COc1cccc2c1CCC(Cn1ncc(-c3cccc(F)c3F)c(-c3ccc(F)cc3)c1=O)C2 (centres undefined)
0.191 | O=C(O)COc1cccc2c1CCC(Cn1ncc(-c3cccc(F)c3)c(-c3ccccc3)c1=O)C2 (centres undefined)
0.087 | O=C(O)COc1cccc2c1CCC(Cn1ncc(-c3cccc(F)c3F)c(-c3ccccc3)c1=O)C2 (centres undefined)
0.33 | COc1ccc(-c2c(-c3ccccc3)cnn(CC3CCc4c(cccc4OCC(=O)O)C3)c2=O)cc1 (centres undefined)
0.23 | O=C(O)COc1cccc2c1CCC(Cn1ncc(-c3ccccc3)c(-c3ccc(F)cc3)c1=O)C2 (centres undefined)
